In US20020137929A1, “1 - (3-heterocyclylphenyl) isothiourea, -isourea, -guanidine and -amidine herbicidal agents” (Intellectual Property Department, BASF Aktiengesellschaft, priority 1998, published 2002):

Key:
[1] = tested on: GLXMAW (Soybean, Williams); assay: Preemergence herbicidal evaluation; type: in vivo, Glycine max, (L.) Merr. cv Williams; conditions: rated 4-5 weeks after treatment, rating scale 0-9
Procedure, shortened: (§1)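 Visual 0-9 rating vs control (stand, vigor, malformation, size, chlorosis, overall appearance), scored 4-5 wk after spraying. Seeded soil cups were treated preemergence with compound in aqueous acetone, ~0.0156-0.500 kg/ha equivalent.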

[2] = tested on: CHEAL (Lambsquarters, Common); assay: Preemergence herbicidal evaluation; type: in vivo, Chenopodium album; conditions: rated 4-5 weeks after treatment, rating scale 0-9
Procedure, shortened: as §1

ABUTH (Velvetleaf) = assay: Preemergence herbicidal evaluation; type: in vivo, Abutilon theophrasti; conditions: rated 4-5 weeks after treatment, rating scale 0-9
Procedure, shortened: as §1

CASOB (Sicklepod) [3] = assay: Postemergence herbicidal evaluation; type: in vivo, Cassia obtusifolia; conditions: postemergence
Procedure, shortened: (§2)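 Visual 0-9 injury score (stand, vigor, malformation, size, chlorosis, appearance vs untreated) taken four to five weeks post-spray, averaged across repeat tests. Test plants about two weeks old; foliar spray of acetone/water (1:1) with 0.5% surfactant delivering ~0.0156-0.500 kg active/ha.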

CASOB (Sicklepod) [4] = assay: Preemergence herbicidal evaluation; type: in vivo, Cassia obtusifolia; conditions: rated 4-5 weeks after treatment, rating scale 0-9
Procedure, shortened: as §1

[5] = tested on: CHEAL (Lambsquarters, Common); assay: Postemergence herbicidal evaluation; type: in vivo, Chenopodium album; conditions: postemergence
Procedure, shortened: as §2

ORYSAT (Rice, Tebonnet) = assay: Preemergence herbicidal evaluation; type: in vivo, Oryza sativa, (L.) Tebonnet; conditions: rated 4-5 weeks after treatment, rating scale 0-9
Procedure, shortened: as §1

[6] = tested on: TRZAWR (Wheat, Winter, cv Riband); assay: Postemergence herbicidal evaluation; type: in vivo, Triticum aestivum; conditions: postemergence
Procedure, shortened: as §2

[7] = tested on: IPOHE (Morningglory, Ivyleaf); assay: Preemergence herbicidal evaluation; type: in vivo, Ipomoea hederacea; conditions: rated 4-5 weeks after treatment, rating scale 0-9
Procedure, shortened: as §1

AMBEL (Ragweed, Common) [8] = assay: Preemergence herbicidal evaluation; type: in vivo, Ambrosia artemisifolia; conditions: rated 4-5 weeks after treatment, rating scale 0-9
Procedure, shortened: as §1

MOOVA (Monochoria) = assay: Preemergence weed control under flooded paddy conditions; type: in vivo, Monochoria vaginalis; conditions: rated 3-4 weeks after treatment
Procedure, shortened: (§3)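 Greenhouse paddy assay. Acetone/water (50/50 v/v) solutions dosed into flood water, equivalent to about 0.0313 to 0.500 kg/ha active ingredient, over seeds planted 0.5 cm deep in silt loam. Score: 0-9 visual, based on stand, vigor, malformation, size and chlorosis, 3 to 4 weeks after treatment.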

AMBEL (Ragweed, Common) [9] = assay: Postemergence herbicidal evaluation; type: in vivo, Ambrosia artemisifolia; conditions: postemergence
Procedure, shortened: as §2

[10] = tested on: SAGPY (Arrowhead (Pygmaea)); assay: Preemergence weed control under flooded paddy conditions; type: in vivo, Sagittaria pygmaea; conditions: rated 3-4 weeks after treatment
Procedure, shortened: as §3

[11] = tested on: IPOHE (Morningglory, Ivyleaf); assay: Postemergence herbicidal evaluation; type: in vivo, Ipomoea hederacea; conditions: postemergence
Procedure, shortened: as §2

[12] = tested on: GLXMAW (Soybean, Williams); assay: Postemergence herbicidal evaluation; type: in vivo, Glycine max, (L.) Merr. cv Williams; conditions: postemergence
Procedure, shortened: as §2

ECHCG (Barnyardgrass) = assay: Postemergence herbicidal evaluation; type: in vivo, Echinochloa crus-galli; conditions: postemergence
Procedure, shortened: as §2

Structure (SMILES): Cn1c(C(F)(F)F)cc(=O)n(-c2cc(N=C3SCC(=O)N3Cc3ccc(F)cc3)c(Cl)cc2F)c1=O [Compound 151, 3-{4-Chloro-2-fluoro-5-{[3-(p-fluorobenzyl)-4-oxo-2-thiazolidinylidene]amino}phenyl}-1-methyl-6-(trifluoromethyl)-2,4(1H,3H)-pyrimidinedione]
- Preemergence herbicidal rating GLXMAW ([1]; rate 0.0156 kg/ha): 2.0
- Preemergence herbicidal rating GLXMAW ([1]; rate 0.0313 kg/ha): 5.0
- Preemergence herbicidal rating GLXMAW ([1]; rate 0.0625 kg/ha): 4.0
- Preemergence herbicidal rating GLXMAW ([1]; rate 0.1250 kg/ha): 7.0
- Preemergence herbicidal rating GLXMAW ([1]; rate 0.2500 kg/ha): 7.0
- Preemergence herbicidal rating CHEAL ([2]; rate 0.0156 kg/ha): 9.0
- Preemergence herbicidal rating CHEAL ([2]; rate 0.0313 kg/ha): 9.0
- Preemergence herbicidal rating CHEAL ([2]; rate 0.0625 kg/ha): 9.0
- Preemergence herbicidal rating CHEAL ([2]; rate 0.1250 kg/ha): 9.0
- Preemergence herbicidal rating CHEAL ([2]; rate 0.2500 kg/ha): 9.0
- Preemergence herbicidal rating ABUTH (ABUTH (Velvetleaf); rate 0.0156 kg/ha): 9.0
- Preemergence herbicidal rating ABUTH (ABUTH (Velvetleaf); rate 0.0313 kg/ha): 9.0
- Preemergence herbicidal rating ABUTH (ABUTH (Velvetleaf); rate 0.0625 kg/ha): 9.0
- Preemergence herbicidal rating ABUTH (ABUTH (Velvetleaf); rate 0.1250 kg/ha): 9.0
- Preemergence herbicidal rating ABUTH (ABUTH (Velvetleaf); rate 0.2500 kg/ha): 9.0
- Herbicidal rating CASOB (CASOB (Sicklepod) [3]; rate 0.0156 kg/ha): 2.0
- Herbicidal rating CASOB (CASOB (Sicklepod) [3]; rate 0.0313 kg/ha): 4.0
- Herbicidal rating CASOB (CASOB (Sicklepod) [3]; rate 0.0625 kg/ha): 4.0
- Preemergence herbicidal rating CASOB (CASOB (Sicklepod) [4]; rate 0.0156 kg/ha): 0.0
- Preemergence herbicidal rating CASOB (CASOB (Sicklepod) [4]; rate 0.0313 kg/ha): 2.0
- Preemergence herbicidal rating CASOB (CASOB (Sicklepod) [4]; rate 0.0625 kg/ha): 2.0
- Preemergence herbicidal rating CASOB (CASOB (Sicklepod) [4]; rate 0.1250 kg/ha): 9.0
- Preemergence herbicidal rating CASOB (CASOB (Sicklepod) [4]; rate 0.2500 kg/ha): 9.0
- Herbicidal rating CHEAL ([5]; rate 0.0156 kg/ha): 9.0
- Herbicidal rating CHEAL ([5]; rate 0.0313 kg/ha): 7.0
- Herbicidal rating CHEAL ([5]; rate 0.0625 kg/ha): 9.0
- Preemergence herbicidal rating ORYSAT (ORYSAT (Rice, Tebonnet); rate 0.0156 kg/ha): 2.0
- Preemergence herbicidal rating ORYSAT (ORYSAT (Rice, Tebonnet); rate 0.0313 kg/ha): 5.0
- Preemergence herbicidal rating ORYSAT (ORYSAT (Rice, Tebonnet); rate 0.0625 kg/ha): 5.0
- Preemergence herbicidal rating ORYSAT (ORYSAT (Rice, Tebonnet); rate 0.1250 kg/ha): 9.0
- Preemergence herbicidal rating ORYSAT (ORYSAT (Rice, Tebonnet); rate 0.2500 kg/ha): 9.0
- Herbicidal rating TRZAWR ([6]; rate 0.0156 kg/ha): 2.5
- Herbicidal rating TRZAWR ([6]; rate 0.0313 kg/ha): 2.5
- Herbicidal rating TRZAWR ([6]; rate 0.0625 kg/ha): 4.0
- Preemergence herbicidal rating IPOHE ([7]; rate 0.0156 kg/ha): 4.0
- Preemergence herbicidal rating IPOHE ([7]; rate 0.0313 kg/ha): 9.0
- Preemergence herbicidal rating IPOHE ([7]; rate 0.0625 kg/ha): 9.0
- Preemergence herbicidal rating IPOHE ([7]; rate 0.1250 kg/ha): 9.0
- Preemergence herbicidal rating IPOHE ([7]; rate 0.2500 kg/ha): 9.0
- Preemergence herbicidal rating AMBEL (AMBEL (Ragweed, Common) [8]; rate 0.0156 kg/ha): 1.0
- Preemergence herbicidal rating AMBEL (AMBEL (Ragweed, Common) [8]; rate 0.0313 kg/ha): 7.0
- Preemergence herbicidal rating AMBEL (AMBEL (Ragweed, Common) [8]; rate 0.0625 kg/ha): 9.0
- Preemergence herbicidal rating AMBEL (AMBEL (Ragweed, Common) [8]; rate 0.1250 kg/ha): 9.0
- Preemergence herbicidal rating AMBEL (AMBEL (Ragweed, Common) [8]; rate 0.2500 kg/ha): 9.0
- herbicidal effect rating, MOOVA (MOOVA (Monochoria); 0.0313 kg/ha): 6.0
- herbicidal effect rating, MOOVA (MOOVA (Monochoria); 0.0625 kg/ha): 9.0
- herbicidal effect rating, MOOVA (MOOVA (Monochoria); 0.1250 kg/ha): 9.0
- herbicidal effect rating, MOOVA (MOOVA (Monochoria); 0.2500 kg/ha): 9.0
- Herbicidal rating AMBEL (AMBEL (Ragweed, Common) [9]; rate 0.0156 kg/ha): 7.0
- Herbicidal rating AMBEL (AMBEL (Ragweed, Common) [9]; rate 0.0313 kg/ha): 7.0
- Herbicidal rating AMBEL (AMBEL (Ragweed, Common) [9]; rate 0.0625 kg/ha): 9.0
- herbicidal effect rating, SAGPY ([10]; 0.0313 kg/ha): 0.0
- herbicidal effect rating, SAGPY ([10]; 0.0625 kg/ha): 2.0
- herbicidal effect rating, SAGPY ([10]; 0.1250 kg/ha): 8.0
- herbicidal effect rating, SAGPY ([10]; 0.2500 kg/ha): 6.0
- Herbicidal rating IPOHE ([11]; rate 0.0156 kg/ha): 9.0
- Herbicidal rating IPOHE ([11]; rate 0.0313 kg/ha): 9.0
- Herbicidal rating IPOHE ([11]; rate 0.0625 kg/ha): 9.0
- Herbicidal rating GLXMAW ([12]; rate 0.0156 kg/ha): 4.0
- Herbicidal rating GLXMAW ([12]; rate 0.0313 kg/ha): 4.5
- Herbicidal rating GLXMAW ([12]; rate 0.0625 kg/ha): 5.5
- Herbicidal rating ECHCG (ECHCG (Barnyardgrass); rate 0.0156 kg/ha): 3.0
- Herbicidal rating ECHCG (ECHCG (Barnyardgrass); rate 0.0313 kg/ha): 3.0
- Herbicidal rating ECHCG (ECHCG (Barnyardgrass); rate 0.0625 kg/ha): 4.0
